Where a name gives a salt, the structure may show the parent alone.
Key:
[1] = molecular target: T1, β2-receptors on the blood vessels (Rattus norvegicus, UniProt P10608); assay: β2-sympatholytic action: inhibition of Isoproterenol blood pressure reduction, rats under urethane narcosis; type: in vivo; details: for β2-Sympatholytic action R.A. (relative activity): Propranolol = 1.00, intravenous; for Q: quotient defined in footnote 6 (drawing 8), cardioselectivity, β2 versus β1 dose; for ED50: rat, iv, read-out: β2-Sympatholytic action ED 50 (dose which inhibits the Isoproterenol blood pressure reduction by 50%)
T1 construct: was tested on rats, weighing 230-280 g, under urethane narcosis; from tissue; host or cells: blood vessels in the living rat under urethane narcosis (in vivo)
T1 sequence (P10608 whole entry): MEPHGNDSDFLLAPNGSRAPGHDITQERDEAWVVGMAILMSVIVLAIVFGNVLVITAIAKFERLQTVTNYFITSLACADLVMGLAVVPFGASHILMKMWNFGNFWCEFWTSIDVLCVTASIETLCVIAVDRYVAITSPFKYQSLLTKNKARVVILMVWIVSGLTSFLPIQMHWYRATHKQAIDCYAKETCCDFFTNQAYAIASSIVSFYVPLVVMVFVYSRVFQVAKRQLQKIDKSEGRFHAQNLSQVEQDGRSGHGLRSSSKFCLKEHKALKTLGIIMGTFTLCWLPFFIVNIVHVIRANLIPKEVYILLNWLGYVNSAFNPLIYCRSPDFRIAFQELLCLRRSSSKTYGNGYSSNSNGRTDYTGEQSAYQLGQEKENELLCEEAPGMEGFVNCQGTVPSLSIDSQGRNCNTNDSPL

cardiac β1-receptors = molecular target: T2, cardiac β1-receptors (Rattus norvegicus, UniProt P18090); assay: β1-sympatholytic action: inhibition of Isoproterenol tachycardia, pithed rats; type: in vivo, rats (Sprague-Dawley; details: for β1-Sympatholytic action R.A. (relative activity): Propranolol = 1.00, pithed rats, intravenous; for ED50: rat, iv, 5 min, read-out: β1-Sympatholytic action ED 50 (dose which inhibits the Isoproterenol tachycardia by 50%); for cardiac β1-receptors blocked at doses lower than those required to block β2-receptors / β1-sympatholytic activity greater than that of Propranolol: rats
T2 construct: in pithed rats (Sprague-Dawley, Mus rattus; weight 230-280 g) causes increases in pulse rate; from tissue; host or cells: heart in the living pithed Sprague-Dawley rat (in vivo)
T2 sequence (P18090 whole entry): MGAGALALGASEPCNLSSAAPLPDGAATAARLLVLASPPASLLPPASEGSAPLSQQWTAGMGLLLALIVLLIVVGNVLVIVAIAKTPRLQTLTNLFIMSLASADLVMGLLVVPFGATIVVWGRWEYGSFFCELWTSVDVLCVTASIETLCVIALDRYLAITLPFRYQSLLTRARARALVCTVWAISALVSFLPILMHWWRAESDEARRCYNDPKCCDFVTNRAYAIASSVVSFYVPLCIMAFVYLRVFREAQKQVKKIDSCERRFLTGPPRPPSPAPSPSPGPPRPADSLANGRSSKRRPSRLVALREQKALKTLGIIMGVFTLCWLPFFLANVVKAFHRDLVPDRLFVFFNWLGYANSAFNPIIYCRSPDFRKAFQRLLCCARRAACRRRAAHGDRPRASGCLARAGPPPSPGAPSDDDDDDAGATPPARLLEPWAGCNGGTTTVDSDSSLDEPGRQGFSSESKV

in vivo = details: mouse; for LD50 at 24 h: ip
Description: The acute toxicity was determined on groups of 10 or 20 female Swiss mice weighing 20-26 g, the compounds being administered intraperitoneally.

| Compound | reduction of mean pressure of the carotid artery ([1]; Isoproterenol 0.215 μg/kg intravenously, rats under urethane narcosis, average) [%] | β1-Sympatholytic action R.A. (relative activity) (cardiac β1-receptors) | ED50 (cardiac β1-receptors) [µg/kg] | cardiac β1-receptors blocked at doses lower than those required to block β2-receptors (cardiac β1-receptors) [times] | Therapeutic range, relative (in vivo) | selectivity ratio (in vivo) | LD50 at 24 h (in vivo) [µg/kg] | β2-Sympatholytic action R.A. (relative activity) ([1]; rats under urethane narcosis) | Q [1] | ED50 [1] [µg/kg] | Therapeutic range, absolute (in vivo) | β1-sympatholytic activity greater than that of Propranolol (cardiac β1-receptors) [times] |
| --- | --- | --- | --- | --- | --- | --- | --- | --- | --- | --- | --- | --- |
| CC(C)NCC(O)c1ccc(O)c(O)c1 (stereo not drawn) [Isoproterenol, reference compound] | 30 | – | – | – | – | – | – | – | – | – | – | – |
| CCCC(C)NCC(O)COc1cccc2sncc12 (stereo not drawn) [Example 35, 4-[2-Hydroxy-3-(pentyl-2-amino)-propoxy]-1,2-benziso-thiazole] | – | 4.88 | 2.52 | 11 | 2.72 | 23900 | 60300 | 0.42 | 10.70 | 27 | – | – |
| CCC(C)(C)NCC(O)COc1cccc2sncc12 (stereo not drawn) [Example 15, 4-[2-Hydroxy-3-(2-methyl-butyl-2-amino)-propoxy]-1,2-benzisothiazole] | – | 6.68 | 1.84 | – | 8.92 | 78300 | 144000 | 1.38 | 4.48 | 8.24 | – | – |
| CC(C)NCC(O)COc1cccc2sncc12 (stereo not drawn) [Example 1, 4-(2-hydroxy-3-isopropylaminopropoxy)-1,2-benzisothiazole hydrochloride] | – | 6.47 | 1.9 | 2 | 3.72 | – | 62100 | 2.71 | 2.21 | 4.2 | 32,700 | – |
| CC(C)(C)NCC(O)COc1cccc2sncc12 (stereo not drawn) [Example 2, 4-(2-hydroxy-3-tert.-butylamino-propoxy)-1,2-benzisothiazole hydrochloride] | – | 7.55 | 1.63 | – | 10.76 | – | 154000 | 2.84 | 2.47 | 4.02 | 94,500 | – |
| C#CC(C)(C)NCC(O)COc1cccc2sncc12 (stereo not drawn) [Example 27, 4-[2-Hydroxy-3-(2-methyl-but-3-ynyl-2-amino)-propoxy]-1,2-benzisothiazole] | – | 5.35 | 2.3 | – | 9.11 | 80000 | 184000 | 1.98 | 2.50 | 5.75 | – | – |
| COCC(C)NCC(O)COc1cccc2sncc12 (stereo not drawn) [Example 29, 4-[2-Hydroxy-3-(1-methoxy-propyl-2-amino)-propoxy]-1,2-benzisothiazole] | – | 2.48 | 4.95 | – | 3.11 | 27300 | 135000 | 0.26 | 8.90 | 44 | – | 2.5 |
| CCC(C)(CC)NCC(O)COc1cccc2sncc12 (stereo not drawn) [Example 16, 4-[2-Hydroxy-3-(3-methyl-pentyl-3-amino)-propoxy]-1,2-benzisothiazole] | – | 3.75 | 3.28 | – | 4.44 | 39000 | 128000 | 0.94 | 3.69 | 12.1 | – | – |
| CCC(C)NCC(O)COc1cccc2sncc12 (stereo not drawn) [Example 14, 4-(2-Hydroxy-3-sec.-butylamino-propoxy)-1,2-benzisothiazole] | – | 8.04 | 1.53 | – | 7.18 | 63000 | 96400 | 1.08 | 6.93 | 10.6 | – | 8 |

Reference: patent US4168317A, “Amino derivatives of 4-hydroxy-1,2-benzisothiazole” (BASF Aktiengesellschaft, priority 1977, dated 1979)
